In patent US5110976A, “Insecticidal composition comprising more than one active ingredient” (priority 1985, dated 1992):

Columns and labels:
[1] = test system: T. confusum; test: Contact method, synergism between stereoisomers (Table 2); assay type: in vivo; conditions: Tribolium confusum, 24 h
Method: The stereoisomers are dissolved in a 1:2 mixture of mineral oil and acetone and filter paper discs (Whatman No. 1., diameter 9 cm) are impregnated with the corresponding dosage of the solution of the active ingredient. The acetone is allowed to evaporate and the insects are examined on filter paper discs placed into Petri-dishes. Three parallels are used for each dose and 15 animals are placed in each Petri-dish. Mortality rate is determined after 24 hours. The corrected mortality % data are calculated by means of the Abbot formula.
The test is carried out on T. confusum and the following results are obtained by the contact method for various active ingredient doses.
The test is carried out according to the method described in Example 20.

[2] = Allergy and skin diseases; conditions: in vivo
[3] = test system: bees; test: Toxicity on bees; conditions: in vivo

Compound: CC1(C)[C@H](C=C(Cl)Cl)[C@H]1C(=O)O[C@H](C#N)c1cccc(Oc2ccccc2)c1 (relative stereo) [Ib]
- mortality at 110 µg/disc ([1]; 0.11 mg/disc): 90%
- mortality at 330 µg/disc ([1]; 0.33 mg/disc): 100%
- mortality at 1000 µg/disc ([1]; 1.00 mg/disc): 100%
- mortality at 3000 µg/disc ([1]; 3.00 mg/disc): 100%
- allergy and skin diseases [2]: causes no allergy and skin diseases
- toxicity on bees [3]: very low toxicity on bees
